In patent US20250376472A1, “3-(PHENYLSULFONYL)-[1,2,3]TRIAZOLO[1,5A]QUINAZOLIN-5(4H)-ONE DERIVATIVES” (priority 2022, published 2025):

Target: T1, AgrA (Staphylococcus aureus, UniProt P0A0I7)
T1 construct: endogenous in cells; host or cells: S. aureus USA300 strain UAMS-1625 carrying a P3-lacZ reporter plasmid
Assay: cell-based
Design: species or system S. aureus
Settings: for Ratio IC50 (in presence of HSA)/IC50 (in absence of HSA): 40 mg/mL HSA versus no HSA
Protocol: The inventive compounds are 3-(phenylsulfonyl)-[1,2,3]triazolo[1,5a]quinazolin-5(4h)-one derivatives comprising an N-bound piperazine or homopiperazine at the 8-position of the [1,2,3]triazolo[1,5a]quinazolin-5(4h)-one core, further substituted (on the second nitrogen atom) by an (optionally substituted) acetyl or propionyl amide group. […] Specifically, the reporter gene lacZ (which encodes the protein product β-galactosidase) was transfected into S. aureus with a plasmid under control of the P3 promoter. The compounds were serially diluted in lysogeny broth (LB), and incubated with S. aureus. Following incubation, the S. aureus cells were lysed and treated with 4-methylumbelliferyl-galactopyranoside (MUG). The β-galactosidase produced by expression of lacZ cleaved the MUG into galactopyranose and 4-methylumbelliferone, which was measured by fluorescence.
The resulting reporter strain was used to measure AgrA inhibitory activity as follows. From an overnight culture plate, cells were resuspended in 0.9% (w/v) saline solution and bacterial inoculum was prepared in LB medium with 5×10^5 CFU/ml. Compounds were two-fold serially diluted in LB and 50 μL of this 10× concentrated samples were added into the 96-deep well plate. 500 μL of bacterial suspension was finally added to the compounds or DMSO control. Plates were covered and incubated with shaking at 37° C. After 18 hours incubation, 100 μL was transferred to a new clear 96-well plate and the OD600 was measured using a TECAN Infinite F200 microplate reader to control for growth inhibition. Another 100 μL was transferred to a new black 96-well plate containing 30 μL of lysis buffer (20 mM Tris/HCl, 3 mM MgCl2, 0.5% Tween 20 (v/v), 0.5% NP-40 (v/v)) and the plate was incubated with shaking at 37° C. for 60 min. 20 μL of the substrate MUG (4-Methylumbelliferyl O-D-galactopyranoside) at 0.25 mg/ml was added and the fluorescence (excitation: 360 nm, emission: 450 mu) was measured with a TECAN Infinite F200 microplate reader after 3 hours incubation at 37° C. with shaking. The IC50 was determined using GraphPad PRISM after normalization to DMSO control.

[1] = IC50 at 40 mg/mL HSA, LB medium supplemented with human serum albumin 40 mg/mL
[2] = IC50 without HSA, LB medium, no human serum albumin, 18 hours incubation
[3] = LB medium supplemented with human serum albumin 40 mg/mL
[4] = LB medium, no human serum albumin, 18 hours incubation

T1 sequence (P0A0I7 whole entry): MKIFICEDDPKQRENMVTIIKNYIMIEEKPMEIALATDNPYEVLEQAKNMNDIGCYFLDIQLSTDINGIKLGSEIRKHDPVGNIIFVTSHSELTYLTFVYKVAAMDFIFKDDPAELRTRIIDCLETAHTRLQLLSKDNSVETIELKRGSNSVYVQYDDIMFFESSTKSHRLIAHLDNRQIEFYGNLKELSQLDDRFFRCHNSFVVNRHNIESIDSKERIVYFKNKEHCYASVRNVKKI

Row | Structure (SMILES) | IC50 [1] [µM] | IC50 [2] [µM] | Ratio IC50 (in presence of HSA)/IC50 (in absence of HSA) | IC50 at 40 mg/mL HSA [3] | IC50 without HSA [4]
1 | Cc1ccc(S(=O)(=O)c2nnn3c2[nH]c(=O)c2ccc(N4CCN(CC(=O)NCC5CCCO5)CC4)cc23)c(C)c1 (stereo not drawn) [Compound 96] | 17.3 to 86.3 | < 1.73 | – | – | –
2 | Cc1ccc(S(=O)(=O)c2nnn3c2[nH]c(=O)c2ccc(N4CCN(CC(=O)NCCCN5CCCC5=O)CC4)cc23)c(C)c1 [Compound 97] | 16.1 to 80.5 | 1.61 to 8.05 | – | – | –
3 | Cc1ccc(S(=O)(=O)c2nnn3c2[nH]c(=O)c2ccc(N4CCCN(CC(=O)NC5CCN(C)CC5)CC4)cc23)c(C)c1 [Compound 102] | – | – | +++ (+++: ratio ≤ 25) | ++ (++: 10 μg/mL < IC50 ≤ 50 μg/mL) | ++ (++: 1 μg/mL < IC50 ≤ 5 μg/mL)
4 | Cc1ccc(S(=O)(=O)c2nnn3c2[nH]c(=O)c2ccc(N4CCCN(CC(=O)NC5CCOCC5)CC4)cc23)c(C)c1 [Compound 103] | < 16.8 | 1.68 to 8.42 | – | – | –
5 | Cc1ccc(S(=O)(=O)c2nnn3c2[nH]c(=O)c2ccc(N4CCN(CC(=O)Nc5ccccc5)CC4)cc23)c(C)c1 [Compound 104] | 17.5 to 87.5 | < 1.75 | – | – | –
6 | Cc1ccc(S(=O)(=O)c2nnn3c2[nH]c(=O)c2ccc(N4CCN(CC(=O)NCc5ccccc5)CC4)cc23)c(C)c1 [Compound 106] | 17.1 to 85.4 | < 1.71 | – | – | –
7 | Cc1ccc(S(=O)(=O)c2nnn3c2[nH]c(=O)c2ccc(N4CCN(CC(=O)NCc5cccc(O)c5)CC4)cc23)c(C)c1 [Compound 108] | 16.6 to 83.1 | < 1.66 | – | – | –
8 | Cc1ccc(S(=O)(=O)c2nnn3c2[nH]c(=O)c2ccc(N4CCN(CC(=O)NCCc5ccccc5)CC4)cc23)c(C)c1 [Compound 109] | 16.7 to 83.4 | < 1.67 | – | – | –
9 | Cc1ccc(S(=O)(=O)c2nnn3c2[nH]c(=O)c2ccc(N4CCN(CC(=O)NCc5cccnc5)CC4)cc23)c(C)c1 [Compound 111] | 17 to 85.2 | < 1.7 | – | – | –
10 | Cc1ccc(S(=O)(=O)c2nnn3c2[nH]c(=O)c2ccc(N4CCN(CC(=O)NCc5ccco5)CC4)cc23)c(C)c1 [Compound 113] | 17.4 to 86.9 | < 1.74 | – | – | –
11 | Cc1ccc(S(=O)(=O)c2nnn3c2[nH]c(=O)c2ccc(N4CCN(CC(=O)NCc5cocn5)CC4)cc23)c(C)c1 [Compound 114] | 17.3 to 86.7 | < 1.73 | – | – | –
12 | Cc1ccc(S(=O)(=O)c2nnn3c2[nH]c(=O)c2ccc(N4CCN(CC(=O)NCCn5cccc5)CC4)cc23)c(C)c1 [Compound 115] | 17 to 84.9 | < 1.7 | – | – | –
13 | Cc1ccc(S(=O)(=O)c2nnn3c2[nH]c(=O)c2ccc(N4CCN(CC(=O)NCCc5cccs5)CC4)cc23)c(C)c1 [Compound 116] | 16.5 to 82.5 | < 1.65 | – | – | –
14 | Cc1ccc(S(=O)(=O)c2nnn3c2[nH]c(=O)c2ccc(N4CCN(CC(=O)NCCn5ccnc5)CC4)cc23)c(C)c1 [Compound 117] | 17 to 84.8 | 1.7 to 8.48 | – | – | –
15 | Cc1ccc(S(=O)(=O)c2nnn3c2[nH]c(=O)c2ccc(N4CCCN(CC(=O)Nc5ccccc5)CC4)cc23)c(C)c1 [Compound 122] | 17.1 to 85.4 | < 1.71 | – | – | –
16 | Cc1ccc(S(=O)(=O)c2nnn3c2[nH]c(=O)c2ccc(N4CCCN(CC(=O)NCc5ccccc5)CC4)cc23)c(C)c1 [Compound 123] | 16.7 to 83.4 | < 1.67 | – | – | –
17 | Cc1ccc(S(=O)(=O)c2nnn3c2[nH]c(=O)c2ccc(N4CCN(CC(=O)N5CCC6(CCCC6)C5)CC4)cc23)c(C)c1 [Compound 126] | 16.6 to 82.8 | < 1.66 | – | – | –
18 | Cc1ccc(S(=O)(=O)c2nnn3c2[nH]c(=O)c2ccc(N4CCN(CC(=O)N5CCC6(CCN(C)CC6)CC5)CC4)cc23)c(C)c1 [Compound 127] | 15.5 to 77.3 | < 1.55 | – | – | –
19 | Cc1ccc(S(=O)(=O)c2nnn3c2[nH]c(=O)c2ccc(N4CCN(CC(=O)N5CCCC6(CCN(C)CC6)C5)CC4)cc23)c(C)c1 [Compound 128] | 15.5 to 77.3 | 1.55 to 7.73 | – | – | –
20 | Cc1ccc(S(=O)(=O)c2nnn3c2[nH]c(=O)c2ccc(N4CCN(CC(=O)N5CCN6CCOCC6C5)CC4)cc23)c(C)c1 (stereo not drawn) [Compound 129] | – | – | +++ (+++: ratio ≤ 25) | +++ (+++: IC50 ≤ 10 μg/mL) | +++ (+++: IC50 ≤ 1 μg/mL)
21 | Cc1ccc(S(=O)(=O)c2nnn3c2[nH]c(=O)c2ccc(N4CCN(CC(=O)N5CCN6CCCC6C5)CC4)cc23)c(C)c1 (stereo not drawn) [Compound 130] | < 16.5 | < 1.65 | – | – | –

Row | Structure (SMILES) | IC50 [1] [µM] | IC50 [2] [µM] | Ratio IC50 (in presence of HSA)/IC50 (in absence of HSA) | IC50 at 40 mg/mL HSA [3] | IC50 without HSA [4]
22 | Cc1ccc(S(=O)(=O)c2nnn3c2[nH]c(=O)c2ccc(N4CCN(CC(=O)NCCN)CC4)cc23)c(C)c1 [Compound 131] | 18.6 to 92.8 | 1.86 to 9.28 | – | – | –
23 | Cc1ccc(S(=O)(=O)c2nnn3c2[nH]c(=O)c2ccc(N4CCN(CC(=O)N5CCNCC5)CC4)cc23)c(C)c1 [Compound 134] | < 17.7 | 1.77 to 8.85 | – | – | –
24 | Cc1ccc(S(=O)(=O)c2nnn3c2[nH]c(=O)c2ccc(N4CCN(CC(=O)N5CCC(N)C5)CC4)cc23)c(C)c1 (stereo not drawn) [Compound 135] | 17.7 to 88.5 | 1.77 to 8.85 | – | – | –
25 | Cc1ccc(S(=O)(=O)c2nnn3c2[nH]c(=O)c2ccc(N4CCN(CC(=O)NC5CCNC5)CC4)cc23)c(C)c1 (stereo not drawn) [Compound 136] | 17.7 to 88.5 | 1.77 to 8.85 | – | – | –
26 | Cc1ccc(S(=O)(=O)c2nnn3c2[nH]c(=O)c2ccc(N4CCN(CC(=O)N5CCC(CN)C5)CC4)cc23)c(C)c1 (stereo not drawn) [Compound 137] | 17.3 to 86.4 | 1.73 to 8.64 | – | – | –
27 | Cc1ccc(S(=O)(=O)c2nnn3c2[nH]c(=O)c2ccc(N4CCN(CC(=O)NC5CNC5)CC4)cc23)c(C)c1 [Compound 138] | 18.2 to 90.8 | 1.82 to 9.08 | – | – | –
28 | Cc1ccc(S(=O)(=O)c2nnn3c2[nH]c(=O)c2ccc(N4CCN(CC(=O)N5CC(N)C5)CC4)cc23)c(C)c1 [Compound 139] | < 18.2 | 1.82 to 9.08 | – | – | –
29 | Cc1ccc(S(=O)(=O)c2nnn3c2[nH]c(=O)c2ccc(N4CCN(CC(=O)NC5CCNCC5)CC4)cc23)c(C)c1 [Compound 140] | 17.3 to 86.4 | 1.73 to 8.64 | – | – | –
30 | Cc1ccc(S(=O)(=O)c2nnn3c2[nH]c(=O)c2ccc(N4CCN(CC(=O)N5CCC(N)CC5)CC4)cc23)c(C)c1 [Compound 141] | < 17.3 | 1.73 to 8.64 | – | – | –
31 | Cc1ccc(S(=O)(=O)c2nnn3c2[nH]c(=O)c2ccc(N4CCN(CC(=O)NC5CCCNC5)CC4)cc23)c(C)c1 (stereo not drawn) [Compound 142] | < 17.3 | 1.73 to 8.64 | – | – | –
32 | Cc1ccc(S(=O)(=O)c2nnn3c2[nH]c(=O)c2ccc(N4CCN(CC(=O)N5CCCC(N)C5)CC4)cc23)c(C)c1 (stereo not drawn) [Compound 143] | – | – | +++ (+++: ratio ≤ 25) | +++ (+++: IC50 ≤ 10 μg/mL) | ++ (++: 1 μg/mL < IC50 ≤ 5 μg/mL)
33 | Cc1ccc(S(=O)(=O)c2nnn3c2[nH]c(=O)c2ccc(N4CCN(CC(=O)N5CCCC(CN)C5)CC4)cc23)c(C)c1 (stereo not drawn) [Compound 144] | < 16.9 | 1.69 to 8.44 | – | – | –
34 | Cc1ccc(S(=O)(=O)c2nnn3c2[nH]c(=O)c2ccc(N4CCN(CC(=O)N5CCCCC5CN)CC4)cc23)c(C)c1 (stereo not drawn) [Compound 145] | 16.9 to 84.4 | 1.69 to 8.44 | – | – | –
35 | Cc1ccc(S(=O)(=O)c2nnn3c2[nH]c(=O)c2ccc(N4CCN(CC(=O)N5CCCC(CCN)C5)CC4)cc23)c(C)c1 (stereo not drawn) [Compound 146] | – | – | +++ (+++: ratio ≤ 25) | +++ (+++: IC50 ≤ 10 μg/mL) | ++ (++: 1 μg/mL < IC50 ≤ 5 μg/mL)
36 | Cc1ccc(S(=O)(=O)c2nnn3c2[nH]c(=O)c2ccc(N4CCN(CC(=O)N5CCC(CN)CC5)CC4)cc23)c(C)c1 [Compound 147] | 16.9 to 84.4 | 1.69 to 8.44 | – | – | –
37 | Cc1ccc(S(=O)(=O)c2nnn3c2[nH]c(=O)c2ccc(N4CCN(CC(=O)N5C[C@H]6CNC[C@H]6C5)CC4)cc23)c(C)c1 [Compound 153] | 16.9 to 84.6 | 1.69 to 8.46 | – | – | –
38 | Cc1ccc(S(=O)(=O)c2nnn3c2[nH]c(=O)c2ccc(N4CCCN(CC(=O)N5CCNCC5)CC4)cc23)c(C)c1 [Compound 161] | < 17.3 | 1.73 to 8.64 | – | – | –
39 | Cc1ccc(S(=O)(=O)c2nnn3c2[nH]c(=O)c2ccc(N4CCCN(CCC(=O)N5CCCC5)CC4)cc23)c(C)c1 [Compound 163] | < 17.3 | 1.73 to 8.65 | – | – | –
40 | O=C(CN1CCN(c2ccc3c(=O)[nH]c4c(S(=O)(=O)c5ccc(C(F)(F)F)cc5)nnn4c3c2)CC1)N1CCCC1 [Compound 164] | 17 to 84.8 | 1.7 to 8.48 | – | – | –
41 | CC(C)c1ccc(S(=O)(=O)c2nnn3c2[nH]c(=O)c2ccc(N4CCN(CC(=O)N5CCCC5)CC4)cc23)cc1 [Compound 166] | – | – | ++ (++: 25 < ratio ≤ 125) | ++ (++: 10 μg/mL < IC50 ≤ 50 μg/mL) | +++ (+++: IC50 ≤ 1 μg/mL)
